pIC50: −log10 of the molar value.
What was measured:
[1] = test system: SU-DHL-1 cells; assay: Inhibition activity of cell proliferation (CCK-8 assay); assay type: cell-based; details: Homo sapiens, 72 h exposure
Procedure: SU-DHL-1 cells were seeded in 96-well tissue culture plates. On the next day, cells were exposed to various concentrations of compounds and further cultured for 72 h. Cell proliferation was then determined using Cell Counting Kit-8 [(CCK-8), Dojindo]assay. Briefly, add 10 μL of the CCK-8 solution to each well of the plate. Incubate the plate for 1-4 hours in the incubator. Measure the absorbance at 450 nm using a multi-well spectrophotometer (SpectraMAX 190, Molecular Devices). The inhibition rate (%) was calculated using the following equation: [1−(A450 Compound/A450 Control)]×100%. IC50 values were calculated according to inhibition curve by four-parameter fit.

[2] = test system: NCI-H2228 cells; assay: In vivo antitumor activity, NCI-H2228 cells implanted sc in nude mice; details: QD, oral, NCI-H2228 xenograft
Procedure: Male nude mice (6-week old) were housed in a specific pathogen-free room with a 12 h light/dark schedule at 20-25° C. and were fed an autoclaved chow diet and water ad libitum.
NCI-H2228 cells at a density of […] in 200 μL were first implanted sc into the right flank of each nude mice and then allowed to grow to above 230 mm^3, the mice were randomly assigned into control and treatment groups (n=6 per group for compound treated group, n=12 per group for vehicle group). Vehicle control group were given vehicle alone, and treatment groups were received Compound 4, LDK378 or Crizotinib as indicated doses via oral administration once daily for 21 days. The mice tumor volumes in each group were measured twice per week.

Cc1cc(Nc2ncc(Cl)c(Nc3ccccc3S(=O)(=O)C(C)C)n2)c(OC(C)C)cc1C1CCNCC1 [LDK378] was tested, and the pIC50 [1] was 6.47 to 7.02, the “Mean relative tumor volume (RTV) ± S.E.” value ([2]; D0, 20 mg/kg) was 100.00 and the “Mean relative tumor volume (RTV) ± S.E.” value ([2]; D4, 20 mg/kg) was 71.66. The “Mean relative tumor volume (RTV) ± S.E.” value ([2]; D7, 20 mg/kg) was 56.79, the “Mean relative tumor volume (RTV) ± S.E.” value ([2]; D11, 20 mg/kg) was 49.09 and the “Mean relative tumor volume (RTV) ± S.E.” value ([2]; D14, 20 mg/kg) was 48.58. For the same compound, the “Mean relative tumor volume (RTV) ± S.E.” value ([2]; D18, 20 mg/kg) was 35.67 and the “Mean relative tumor volume (RTV) ± S.E.” value ([2]; D21, 20 mg/kg) was 31.44.
In the case of C[C@@H](Oc1cc(-c2cnn(C3CCNCC3)c2)cnc1N)c1c(Cl)ccc(F)c1Cl [Crizotinib], the pIC50 [1] was 6.81 to 7.12, the “Mean relative tumor volume (RTV) ± S.E.” value ([2]; D0, 50 mg/kg) was 100.00 and the “Mean relative tumor volume (RTV) ± S.E.” value ([2]; D4, 50 mg/kg) was 67.71±. The “Mean relative tumor volume (RTV) ± S.E.” value ([2]; D7, 50 mg/kg) was 54.10, the “Mean relative tumor volume (RTV) ± S.E.” value ([2]; D11, 50 mg/kg) was 44.71 and the “Mean relative tumor volume (RTV) ± S.E.” value ([2]; D14, 50 mg/kg) was 42.69. For the same compound, the “Mean relative tumor volume (RTV) ± S.E.” value ([2]; D18, 50 mg/kg) was 41.44 and the “Mean relative tumor volume (RTV) ± S.E.” value ([2]; D21, 50 mg/kg) was 43.69.
For Cc1cc(Nc2nc(Nc3ccccc3S(=O)(=O)C(C)C)c3c(C)n[nH]c3n2)c2c(c1C1CCN(C)CC1)C[C@@H](C)O2 [Example 4], the pIC50 [1] was 7.96, the “Mean relative tumor volume (RTV) ± S.E.” value ([2]; D0, 10 mg/kg) was 100.00 and the “Mean relative tumor volume (RTV) ± S.E.” value ([2]; D4, 10 mg/kg) was 52.92. For the same compound, the “Mean relative tumor volume (RTV) ± S.E.” value ([2]; D7, 10 mg/kg) was 36.55, the “Mean relative tumor volume (RTV) ± S.E.” value ([2]; D11, 10 mg/kg) was 29.20 and the “Mean relative tumor volume (RTV) ± S.E.” value ([2]; D14, 10 mg/kg) was 18.82. For the same compound, the “Mean relative tumor volume (RTV) ± S.E.” value ([2]; D18, 10 mg/kg) was 9.48 and the “Mean relative tumor volume (RTV) ± S.E.” value ([2]; D21, 10 mg/kg) was 5.28.
Cc1cc(Nc2ncc(Cl)c(Nc3ccccc3S(=O)(=O)C(C)C)n2)c2c(c1C1CCN(S(C)(=O)=O)CC1)C[C@@H](C)O2 [Example 18] showed a pIC50 [1] of 7.80.
Cc1cc(Nc2ncc(Cl)c(Nc3ccccc3S(=O)(=O)C(C)C)n2)c2c(c1C1CCN(C)CC1)CCO2 [Example 14] showed a pIC50 [1] of 8.18.
For Cc1cc(Nc2nc(Nc3ccccc3S(=O)(=O)C(C)C)c3c(C)n[nH]c3n2)c2c(c1C1CCNCC1)CCO2 [Example 1], the pIC50 [1] was 7.59.
COCCN1CCC(c2c(C)cc(Nc3ncc(Cl)c(Nc4ccccc4S(=O)(=O)C(C)C)n3)c3c2C[C@@H](C)O3)CC1 [Example 32, (R)-5-chloro-N-4-(2-(isopropylsulfonyl)phenyl)-N-2-(4-(1-(2-methoxyethyl)piperidin-4-yl)-2,5-dimethyl-2,3-dihydrobenzofuran-7-yl)pyrimidine-2,4-diamine] gave a pIC50 [1] of 7.71.

Reference: patent US9567342B2, “Certain protein kinase inhibitors” (SHANGHAI FOCHON PHARMACEUTICAL CO., LTD., priority 2012, dated 2017)
